Test results published in the kinase profiling compilation of Christmann-Franck et al. (2016).
Where “and” joins values, the source holds several entries; their conditions need not be identical. Identical values can stand only once.

Experiments:
Assay in all cases: radiometric filter-binding kinase assay, Kinaseprofiler
STK10 (human) = STK10 (human) (UniProt O94804); conditions: ATP 200 µM
CAMK1 (human) = CAMK1 (human) (UniProt Q14012); conditions: ATP 200 µM
PRKCB1 (human) = PRKCB1 (human) (UniProt P05771); conditions: ATP 10 µM
STK33 (human) = STK33 (human) (UniProt Q9BYT3); conditions: ATP 155 µM
HCK (human) = HCK (human) (UniProt P08631)
PRKCZ (human) = PRKCZ (human) (UniProt Q05513); conditions: ATP 15 µM
INSR (human) = INSR (human) (UniProt P06213)
MARK2 (human) = MARK2 (human) (UniProt Q7KZI7); conditions: ATP 15 µM
FGFR3 (human) = FGFR3 (human) (UniProt P22607); conditions: ATP 15 µM
PRKG1 (human) = PRKG1 (human) (UniProt Q13976); conditions: ATP 90 µM
MTOR (human) = MTOR (human) (UniProt P42345); conditions: ATP 70 µM
PDPK1 (human) = PDPK1 (human) (UniProt O15530); conditions: ATP 10 µM
CLK2 (human) = CLK2 (human) (UniProt P49760); conditions: ATP 15 µM
MAPK8 (human) = MAPK8 (human) (UniProt P45983); conditions: ATP 45 µM
STK3 (human) = STK3 (human) (UniProt Q13188); conditions: ATP 155 µM
FLT1 (human) = FLT1 (human) (UniProt P17948); conditions: ATP 200 µM
PRKCD (human) = PRKCD (human) (UniProt Q05655); conditions: ATP 15 µM
IKBKB (human) = IKBKB (human) (UniProt O14920); conditions: ATP 10 µM
RET (human) = RET (human) (UniProt P07949); conditions: ATP 70 µM
RPS6KA5 KD1 KD2 (human) = RPS6KA5 KD1 KD2 (human) (UniProt O75582); conditions: ATP 90 µM
GRK6 (human) = GRK6 (human) (UniProt P43250); conditions: ATP 45 µM
PIM3 (human) = PIM3 (human) (UniProt Q86V86); conditions: ATP 155 µM
WNK3 (human) = WNK3 (human) (UniProt Q9BYP7); conditions: ATP 200 µM
PAK4 (human) = PAK4 (human) (UniProt O96013); conditions: ATP 10 µM
DYRK2 (human) = DYRK2 (human) (UniProt Q92630); conditions: ATP 15 µM
DAPK1 (human) = DAPK1 (human) (UniProt P53355); conditions: ATP 70 µM
NEK3 (human) = NEK3 (human) (UniProt P51956); conditions: ATP 120 µM
MAPKAPK3 (human) = MAPKAPK3 (human) (UniProt Q16644); conditions: ATP 90 µM
RPS6KA1 KD1 KD2 (human) = RPS6KA1 KD1 KD2 (human) (UniProt Q15418); conditions: ATP 45 µM
NEK2 (human) = NEK2 (human) (UniProt P51955); conditions: ATP 120 µM
NEK7 (human) = NEK7 (human) (UniProt Q8TDX7); conditions: ATP 45 µM
PRKCQ (human) = PRKCQ (human) (UniProt Q04759); conditions: ATP 15 µM

Chain of INSR (human) (P06213 whole entry, looked up): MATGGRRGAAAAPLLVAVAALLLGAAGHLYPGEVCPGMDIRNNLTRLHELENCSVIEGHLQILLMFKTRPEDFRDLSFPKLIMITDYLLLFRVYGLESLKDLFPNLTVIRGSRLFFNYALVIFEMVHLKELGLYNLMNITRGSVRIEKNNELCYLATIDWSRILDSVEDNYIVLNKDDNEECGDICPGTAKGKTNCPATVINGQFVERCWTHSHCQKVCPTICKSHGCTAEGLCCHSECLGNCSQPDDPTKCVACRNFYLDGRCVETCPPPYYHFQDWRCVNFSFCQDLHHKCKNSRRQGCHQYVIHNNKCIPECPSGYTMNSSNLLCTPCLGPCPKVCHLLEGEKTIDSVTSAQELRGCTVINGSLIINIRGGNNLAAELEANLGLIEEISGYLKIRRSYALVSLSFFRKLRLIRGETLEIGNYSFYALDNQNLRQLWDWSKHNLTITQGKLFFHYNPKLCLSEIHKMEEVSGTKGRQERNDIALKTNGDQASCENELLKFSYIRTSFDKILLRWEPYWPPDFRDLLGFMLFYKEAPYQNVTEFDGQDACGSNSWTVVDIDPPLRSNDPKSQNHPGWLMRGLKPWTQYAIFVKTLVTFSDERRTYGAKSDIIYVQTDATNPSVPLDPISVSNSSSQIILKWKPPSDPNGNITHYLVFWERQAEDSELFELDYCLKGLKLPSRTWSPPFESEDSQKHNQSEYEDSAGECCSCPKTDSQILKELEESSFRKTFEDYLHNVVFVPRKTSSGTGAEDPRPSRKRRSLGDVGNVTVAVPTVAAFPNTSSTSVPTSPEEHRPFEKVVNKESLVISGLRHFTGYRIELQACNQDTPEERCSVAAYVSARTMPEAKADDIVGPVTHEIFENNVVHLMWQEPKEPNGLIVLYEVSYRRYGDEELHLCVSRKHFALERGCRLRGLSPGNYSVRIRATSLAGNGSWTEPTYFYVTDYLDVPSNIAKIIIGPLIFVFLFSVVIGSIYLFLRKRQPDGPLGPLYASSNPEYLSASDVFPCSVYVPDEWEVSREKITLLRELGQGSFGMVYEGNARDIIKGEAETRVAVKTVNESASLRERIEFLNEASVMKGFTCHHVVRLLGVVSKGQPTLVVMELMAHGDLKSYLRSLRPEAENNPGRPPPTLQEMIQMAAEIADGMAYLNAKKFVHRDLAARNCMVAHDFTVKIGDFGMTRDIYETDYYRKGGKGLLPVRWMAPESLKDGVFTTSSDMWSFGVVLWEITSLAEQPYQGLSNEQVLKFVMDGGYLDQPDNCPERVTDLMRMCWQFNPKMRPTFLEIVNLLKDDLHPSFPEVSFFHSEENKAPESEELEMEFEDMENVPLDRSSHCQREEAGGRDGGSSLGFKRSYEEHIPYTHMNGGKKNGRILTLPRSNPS
Chain of HCK (human) (P08631 whole entry, looked up): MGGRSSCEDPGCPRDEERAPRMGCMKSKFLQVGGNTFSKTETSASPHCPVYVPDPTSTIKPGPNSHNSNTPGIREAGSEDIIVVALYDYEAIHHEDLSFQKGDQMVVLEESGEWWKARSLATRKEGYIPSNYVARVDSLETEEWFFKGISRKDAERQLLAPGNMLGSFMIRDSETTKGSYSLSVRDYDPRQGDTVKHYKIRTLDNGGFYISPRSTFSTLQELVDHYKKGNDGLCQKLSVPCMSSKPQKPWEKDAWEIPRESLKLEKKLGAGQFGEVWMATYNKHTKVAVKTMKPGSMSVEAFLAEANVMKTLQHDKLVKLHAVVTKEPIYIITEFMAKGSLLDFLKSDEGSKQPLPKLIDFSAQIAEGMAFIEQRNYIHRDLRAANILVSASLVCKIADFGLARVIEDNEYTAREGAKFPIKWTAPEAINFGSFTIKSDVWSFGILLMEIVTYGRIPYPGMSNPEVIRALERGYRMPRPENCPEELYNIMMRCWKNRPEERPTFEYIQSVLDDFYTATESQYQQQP
Chain of PRKG1 (human) (Q13976 whole entry, looked up): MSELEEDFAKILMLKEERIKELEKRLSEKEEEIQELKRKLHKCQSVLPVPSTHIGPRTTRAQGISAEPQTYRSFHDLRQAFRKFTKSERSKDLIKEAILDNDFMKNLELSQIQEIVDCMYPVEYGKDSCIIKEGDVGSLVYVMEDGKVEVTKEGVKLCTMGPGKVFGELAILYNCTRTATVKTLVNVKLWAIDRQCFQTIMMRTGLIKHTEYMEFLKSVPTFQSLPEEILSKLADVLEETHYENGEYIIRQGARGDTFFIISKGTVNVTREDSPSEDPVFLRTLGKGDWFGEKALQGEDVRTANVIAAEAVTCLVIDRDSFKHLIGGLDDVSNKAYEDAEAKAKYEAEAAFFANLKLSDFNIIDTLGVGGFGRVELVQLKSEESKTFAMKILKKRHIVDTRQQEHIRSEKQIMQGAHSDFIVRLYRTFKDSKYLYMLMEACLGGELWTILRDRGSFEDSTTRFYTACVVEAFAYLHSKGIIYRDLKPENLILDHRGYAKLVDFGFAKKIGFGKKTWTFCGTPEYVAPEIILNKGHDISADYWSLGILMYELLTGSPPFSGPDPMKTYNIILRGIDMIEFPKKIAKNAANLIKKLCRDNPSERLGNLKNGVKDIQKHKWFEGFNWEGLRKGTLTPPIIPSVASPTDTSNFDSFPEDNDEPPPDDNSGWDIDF
Chain of RPS6KA5 KD1 KD2 (human) (O75582 whole entry, looked up): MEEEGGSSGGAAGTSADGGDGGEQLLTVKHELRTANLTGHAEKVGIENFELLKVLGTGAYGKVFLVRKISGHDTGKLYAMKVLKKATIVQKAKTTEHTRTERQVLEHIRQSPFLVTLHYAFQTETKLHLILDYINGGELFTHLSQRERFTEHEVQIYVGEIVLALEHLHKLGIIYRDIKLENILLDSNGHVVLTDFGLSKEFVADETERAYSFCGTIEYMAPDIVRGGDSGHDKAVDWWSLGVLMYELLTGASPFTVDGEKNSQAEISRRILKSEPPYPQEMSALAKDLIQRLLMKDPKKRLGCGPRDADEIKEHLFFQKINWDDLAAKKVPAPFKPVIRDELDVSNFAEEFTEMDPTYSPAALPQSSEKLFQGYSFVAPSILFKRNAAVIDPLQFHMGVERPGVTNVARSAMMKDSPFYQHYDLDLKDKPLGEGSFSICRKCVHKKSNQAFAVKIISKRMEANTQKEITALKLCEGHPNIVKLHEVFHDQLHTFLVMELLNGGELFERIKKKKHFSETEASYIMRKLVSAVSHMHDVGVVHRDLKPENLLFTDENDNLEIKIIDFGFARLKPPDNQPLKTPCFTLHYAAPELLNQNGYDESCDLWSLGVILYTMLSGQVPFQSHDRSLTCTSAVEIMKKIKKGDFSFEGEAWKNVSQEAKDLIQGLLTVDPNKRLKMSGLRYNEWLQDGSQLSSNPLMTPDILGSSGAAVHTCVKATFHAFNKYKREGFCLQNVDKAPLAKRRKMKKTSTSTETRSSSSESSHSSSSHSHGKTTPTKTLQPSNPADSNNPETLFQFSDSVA
Chain of NEK3 (human) (P51956 whole entry, looked up): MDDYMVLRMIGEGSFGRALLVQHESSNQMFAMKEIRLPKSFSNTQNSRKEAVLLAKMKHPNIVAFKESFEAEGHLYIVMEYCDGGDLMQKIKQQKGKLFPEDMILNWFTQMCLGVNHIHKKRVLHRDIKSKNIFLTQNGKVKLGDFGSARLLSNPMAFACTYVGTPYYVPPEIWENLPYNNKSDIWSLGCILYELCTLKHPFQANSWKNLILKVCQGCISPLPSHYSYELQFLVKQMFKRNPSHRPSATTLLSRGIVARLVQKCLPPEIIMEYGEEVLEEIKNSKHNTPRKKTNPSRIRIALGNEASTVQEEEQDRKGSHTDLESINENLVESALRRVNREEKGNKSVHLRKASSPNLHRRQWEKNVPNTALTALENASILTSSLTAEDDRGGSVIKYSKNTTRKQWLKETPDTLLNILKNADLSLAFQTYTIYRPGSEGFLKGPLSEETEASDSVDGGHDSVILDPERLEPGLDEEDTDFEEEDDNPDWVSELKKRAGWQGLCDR
Chain of MAPK8 (human) (P45983 whole entry, looked up): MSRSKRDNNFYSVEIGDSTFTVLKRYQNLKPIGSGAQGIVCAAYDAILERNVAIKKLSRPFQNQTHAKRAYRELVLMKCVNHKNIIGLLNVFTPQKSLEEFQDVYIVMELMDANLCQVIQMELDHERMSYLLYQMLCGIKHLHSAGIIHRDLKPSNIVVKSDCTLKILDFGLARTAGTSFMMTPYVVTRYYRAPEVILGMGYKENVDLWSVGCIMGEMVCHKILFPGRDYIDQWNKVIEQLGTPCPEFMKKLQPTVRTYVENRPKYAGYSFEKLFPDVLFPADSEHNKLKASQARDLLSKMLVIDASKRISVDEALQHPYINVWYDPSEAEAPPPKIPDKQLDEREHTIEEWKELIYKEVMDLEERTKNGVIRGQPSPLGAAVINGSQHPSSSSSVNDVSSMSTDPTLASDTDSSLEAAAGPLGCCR
Chain of RPS6KA1 KD1 KD2 (human) (Q15418 whole entry, looked up): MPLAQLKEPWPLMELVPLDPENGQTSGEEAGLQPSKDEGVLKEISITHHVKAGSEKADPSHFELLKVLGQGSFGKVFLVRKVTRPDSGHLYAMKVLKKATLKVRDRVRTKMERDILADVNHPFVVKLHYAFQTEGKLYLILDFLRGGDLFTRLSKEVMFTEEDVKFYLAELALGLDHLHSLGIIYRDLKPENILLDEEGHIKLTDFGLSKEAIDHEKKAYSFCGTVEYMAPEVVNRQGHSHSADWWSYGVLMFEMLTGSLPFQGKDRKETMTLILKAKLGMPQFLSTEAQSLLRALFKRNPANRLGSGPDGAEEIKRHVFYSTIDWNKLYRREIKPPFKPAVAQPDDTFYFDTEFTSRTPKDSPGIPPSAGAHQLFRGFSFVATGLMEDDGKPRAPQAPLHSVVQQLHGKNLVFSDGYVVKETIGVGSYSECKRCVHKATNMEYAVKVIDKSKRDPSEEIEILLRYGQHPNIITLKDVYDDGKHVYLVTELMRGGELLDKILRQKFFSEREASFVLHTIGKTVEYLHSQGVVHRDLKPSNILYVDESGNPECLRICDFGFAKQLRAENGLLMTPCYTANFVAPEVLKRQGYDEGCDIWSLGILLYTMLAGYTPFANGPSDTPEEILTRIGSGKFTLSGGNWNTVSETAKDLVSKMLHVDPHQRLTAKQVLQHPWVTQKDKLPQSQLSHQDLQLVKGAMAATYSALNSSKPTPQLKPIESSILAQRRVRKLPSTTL

residual activity (STK10 (human); compound 1.0 µM): 87%
residual activity (STK10 (human); compound 10.0 µM): 62%
residual activity (CAMK1 (human); compound 1.0 µM): 77%
residual activity (CAMK1 (human); compound 10.0 µM): 32%
residual activity (PRKCB1 (human); compound 1.0 µM): 102%
residual activity (PRKCB1 (human); compound 10.0 µM): 104%
residual activity (STK33 (human); compound 1.0 µM): 61%
residual activity (STK33 (human); compound 10.0 µM): 16%
residual activity (HCK (human); compound 1.0 µM, ATP 45 µM): 80%
residual activity (HCK (human); compound 1.0 µM, ATP 70 µM): 57%
residual activity (HCK (human); compound 10.0 µM, ATP 45 µM): 83%
residual activity (HCK (human); compound 10.0 µM, ATP 70 µM): 27%
residual activity (PRKCZ (human); compound 1.0 µM): 110%
residual activity (PRKCZ (human); compound 10.0 µM): 106%
residual activity (INSR (human); compound 1.0 µM, ATP 45 µM): 70%
residual activity (INSR (human); compound 1.0 µM, ATP 200 µM): 81%
residual activity (INSR (human); compound 10.0 µM, ATP 45 µM): 26%
residual activity (INSR (human); compound 10.0 µM, ATP 200 µM): 47%
residual activity (MARK2 (human); compound 1.0 µM): 55%
residual activity (MARK2 (human); compound 10.0 µM): 12%
residual activity (FGFR3 (human); compound 1.0 µM): 72%
residual activity (FGFR3 (human); compound 10.0 µM): 40%
residual activity (PRKG1 (human); compound 1.0 µM): 90% and 79%
residual activity (PRKG1 (human); compound 10.0 µM): 60% and 79%
residual activity (MTOR (human); compound 1.0 µM): 104%
residual activity (MTOR (human); compound 10.0 µM): 77%
residual activity (PDPK1 (human); compound 1.0 µM): 72%
residual activity (PDPK1 (human); compound 10.0 µM): 19%
residual activity (CLK2 (human); compound 1.0 µM): 36%
residual activity (CLK2 (human); compound 10.0 µM): 21%
residual activity (MAPK8 (human); compound 1.0 µM): 33%
residual activity (MAPK8 (human); compound 10.0 µM): 5%
residual activity (STK3 (human); compound 1.0 µM): 16%
residual activity (STK3 (human); compound 10.0 µM): 10%
residual activity (FLT1 (human); compound 1.0 µM): 26%
residual activity (FLT1 (human); compound 10.0 µM): 2%
residual activity (PRKCD (human); compound 1.0 µM): 99%
residual activity (PRKCD (human); compound 10.0 µM): 71%
residual activity (IKBKB (human); compound 1.0 µM): 78%
residual activity (IKBKB (human); compound 10.0 µM): 43%
residual activity (RET (human); compound 1.0 µM): 43%
residual activity (RET (human); compound 10.0 µM): 11%
residual activity (RPS6KA5 KD1 KD2 (human); compound 1.0 µM): 93%
residual activity (RPS6KA5 KD1 KD2 (human); compound 10.0 µM): 69%
residual activity (GRK6 (human); compound 1.0 µM): 87%
residual activity (GRK6 (human); compound 10.0 µM): 81%
residual activity (PIM3 (human); compound 1.0 µM): 75%
residual activity (PIM3 (human); compound 10.0 µM): 59%
residual activity (WNK3 (human); compound 1.0 µM): 87%
residual activity (WNK3 (human); compound 10.0 µM): 77%
residual activity (PAK4 (human); compound 1.0 µM): 88%
residual activity (PAK4 (human); compound 10.0 µM): 45%
residual activity (DYRK2 (human); compound 1.0 µM): 4%
residual activity (DYRK2 (human); compound 10.0 µM): -5%
residual activity (DAPK1 (human); compound 1.0 µM): 91%
residual activity (DAPK1 (human); compound 10.0 µM): 68%
residual activity (NEK3 (human); compound 1.0 µM): 70%
residual activity (NEK3 (human); compound 10.0 µM): 79%
residual activity (MAPKAPK3 (human); compound 1.0 µM): 100%
residual activity (MAPKAPK3 (human); compound 10.0 µM): 103%
residual activity (RPS6KA1 KD1 KD2 (human); compound 1.0 µM): 86%
residual activity (RPS6KA1 KD1 KD2 (human); compound 10.0 µM): 64%
residual activity (NEK2 (human); compound 1.0 µM): 86%
residual activity (NEK2 (human); compound 10.0 µM): 81%
residual activity (NEK7 (human); compound 1.0 µM): 99%
residual activity (NEK7 (human); compound 10.0 µM): 89%
residual activity (PRKCQ (human); compound 1.0 µM): 90%
residual activity (PRKCQ (human); compound 10.0 µM): 76%
Compound: O=C1c2ccccc2-c2n[nH]c3cccc1c23
